According to patent US10711000B2 (Fronthera U.S. Pharmaceuticals LLC, priority 2018, dated 2020):
Where two headings read alike, the source gives them in different places.

Molecular target: T1, Autotaxin (Homo sapiens, UniProt Q13822)
T1 construct: from tissue; host or cells: pooled human plasma
Assay: LPA formation in pooled human plasma (ex vivo autotaxin inhibition)
Assay type: biochemical
Details: 2 hours incubation
Procedure: Autotaxin is a plasma phosphodiesterase that converts lysophosphatidylcholine (LPC) into lysophosphatidic acid (LPA), therefore LPA formation was used to evaluate the potency of autotaxin inhibitors. The potency of compound was evaluated ex vivo in pooled human plasma.
Various concentrations of compound were incubated with plasma for 2 hours, and the LPA 18:2 and 20:4 concentration was measured by LC/MS/MS. To determine the LPA18:2 or 20:4 concentration in study plasma, a 10× calibration standard of LPA 18:2 or 20:4 were prepared by serial dilution in butyl alcohol: 20000, 10000, 5000, 2000, 1000, 500, 200, 100, 50, 20, and 10 ng/mL. 3 μL of calibration standard solution was added into 27.0 μL of blank plasma in 1.5-mL microcentrifuge tubes to generate 1× calibration standards. The 30.0 μL of standards or study plasma was added into 1.5-mL microcentrifuge tubes. 200 μL of butyl alcohol (containing 25.0 ng/mL LPA17:0 for internal control) was added into each 1.5-mL microcentrifuge tube containing study plasma or calibration standards. After vortexing for 1 minute and centrifuging at 10000 rpm for 10 min, 180 μL of supernatant was transferred into a 96-well plate and the LPA18:2 concentration in the plasma was quantitated using LC/MS/MS together with standards. Briefly, 8 μL of the solutions were injected for LC-MS/MS analysis using an ACQUITY UPLC BEH C18 column (2.1×50 mm, 1.7 μm) with mobile phase A [20 mM NH4OAC in water (0.1% FA)] and phase B [5 mM NH4OAC in water/0.2% FA in ACN=5:95]. Mass spectrometer parameters optimization for LPA18:2 were performed by Deprotonated molecular ion at m/z 433.2 ([M−H]^−) for LPA18:2, 457.2 for LPA20:4 and abundant product ion at m/z 152.8 for both LPA18:2 and LPA20:4 were obtained. Quantitative data were acquired in multiple reaction monitoring (MRM) negative electrospray ionization mode
The inhibition rate of LPA formation was determined by comparing the levels of LPA in treated and non-treated plasma. The data was plotted against the corresponding concentration of compound and the IC50 was calculated through non-linear regression fitting.

[1] = LPA 18:2 by LC/MS/MS, read-out: LPA formation (18:2) (IC50)
[2] = LPA 20:4 by LC/MS/MS, read-out: LPA formation (20:4) (IC50)

SMILES	IC50 [1]	IC50 [2]
CCc1nn2c(C)cc(N3CC4(CN(C(=O)CO)C4)C3)cc2c1N(C)c1nc(-c2ccc(F)cc2)c(C#N)s1 [Example 29, 2-((2-ethyl-5-(6-(2-hydroxyacetyl)-2,6-diazaspiro[3.3]heptan-2-yl)-7-methylpyrazolo[1,5-a]pyridin-3-yl)(methyl)amino)-4-(4-fluorophenyl)thiazole-5-carbonitrile]	100 to 500 nM	500 to 1000 nM
CCc1nn2c(C)cc(N3CC4(CN(C(=O)C5COC5)C4)C3)cc2c1N(C)c1nc(-c2ccc(F)cc2)c(C#N)s1 [Example 31, 2-((2-ethyl-7-methyl-5-(6-(oxetane-3-carbonyl)-2,6-diazaspiro[3.3]heptan-2-yl)pyrazolo[1,5-a]pyridin-3-yl)(methyl)amino)-4-(4-fluorophenyl)thiazole-5-carbonitrile]	100 to 500 nM	100 to 500 nM
CCc1nn2c(C)cc(N3CC4(CN(C(=O)OC5CCOC5)C4)C3)cc2c1N(C)c1nc(-c2ccc(F)cc2)c(C#N)s1 (stereo not shown) [Example 34, tetrahydrofuran-3-yl 6-(3-((5-cyano-4-(4-fluorophenyl)thiazol-2-yl)(methyl)amino)-2-ethyl-7-methylpyrazolo[1,5-a]pyridin-5-yl)-2,6-diazaspiro[3.3]heptane-2-carboxylate]	100 to 500 nM	100 to 500 nM
CCc1nn2c(C)cc(N3CC4(C3)CN(c3ncco3)C4)cc2c1N(C)c1nc(-c2ccc(F)cc2)c(C#N)s1 [Example 35, 2-((2-ethyl-7-methyl-5-(6-(oxazol-2-yl)-2,6-diazaspiro[3.3]heptan-2-yl)pyrazolo[1,5-a]pyridin-3-yl)(methyl)amino)-4-(4-fluorophenyl)thiazole-5-carbonitrile]	100 to 500 nM	100 to 500 nM
CCc1nn2c(C)cc(N3CC4(CN(C(=O)N5CCOCC5)C4)C3)cc2c1N(C)c1nc(-c2ccc(F)cc2)c(C#N)s1 [Example 42]	≤ 100 nM	≤ 100 nM
CCc1nn2c(C)cc(N3CCC4(CN(C(=O)C5CCOCC5)C4)C3)cc2c1N(C)c1nc(-c2ccc(F)cc2)c(C#N)s1 [Example 43, 2-((2-ethyl-7-methyl-5-(2-(tetrahydro-2H-pyran-4-carbonyl)-2,6-diazaspiro[3.4]octan-6-yl)pyrazolo[1,5-a]pyridin-3-yl)(methyl)amino)-4-(4-fluorophenyl)thiazole-5-carbonitrile]	≤ 100 nM	≤ 100 nM
CCc1nn2c(C)cc(N3CC4(CCN(C(=O)C5CCOCC5)C4)C3)cc2c1N(C)c1nc(-c2ccc(F)cc2)c(C#N)s1 [Example 44, 2-((2-ethyl-7-methyl-5-(6-(tetrahydro-2H-pyran-4-carbonyl)-2,6-diazaspiro[3.4]octan-2-yl)pyrazolo[1,5-a]pyridin-3-yl)(methyl)amino)-4-(4-fluorophenyl)thiazole-5-carbonitrile]	≤ 100 nM	≤ 100 nM
CCc1nn2c(C)cc(N3CC4(CCN(C(=O)[C@H]5CCOC5)C4)C3)cc2c1N(C)c1nc(-c2ccc(F)cc2)c(C#N)s1 [Example 45, (S)-2-((2-ethyl-7-methyl-5-(6-(tetrahydrofuran-3-carbonyl)-2,6-diazaspiro[3.4]octan-2-yl)pyrazolo[1,5-a]pyridin-3-yl)(methyl)amino)-4-(4-fluorophenyl)thiazole-5-carbonitrile]	≤ 100 nM	≤ 100 nM

Results, then the molecule that gave them:

IC50 [1]	IC50 [2]	SMILES
≤ 100 nM	≤ 100 nM	CCc1nn2c(C)cc(N3CC4(CN(C(=O)C(C)(C)O)C4)C3)cc2c1N(C)c1nc(-c2ccc(F)cc2)c(C#N)s1 [Example 30, 2-((2-ethyl-5-(6-(2-hydroxy-2-methylpropanoyl)-2,6-diazaspiro[3.3]heptan-2-yl)-7-methylpyrazolo[1,5-a]pyridin-3-yl)(methyl)amino)-4-(4-fluorophenyl)thiazole-5-carbonitrile]
≤ 100 nM	≤ 100 nM	CCc1nn2c(C)cc(N3CC4(CN(C(=O)N5CCN(C)CC5)C4)C3)cc2c1N(C)c1nc(-c2ccc(F)cc2)c(C#N)s1 [Example 32, 2-((2-ethyl-7-methyl-5-(6-(4-methylpiperazine-1-carbonyl)-2,6-diazaspiro[3.3]heptan-2-yl)pyrazolo[1,5-a]pyridin-3-yl)(methyl)amino)-4-(4-fluorophenyl)thiazole-5-carbonitrile]
≤ 100 nM	100 to 500 nM	CCc1nn2c(C)cc(N3CC4(CN(C(=O)C5CCN(C)CC5)C4)C3)cc2c1N(C)c1nc(-c2ccc(F)cc2)c(C#N)s1 [Example 33, 2-((2-ethyl-7-methyl-5-(6-(1-methylpiperidine-4-carbonyl)-2,6-diazaspiro[3.3]heptan-2-yl)pyrazolo[1,5-a]pyridin-3-yl)(methyl)amino)-4-(4-fluorophenyl)thiazole-5-carbonitrile]
≤ 100 nM	≤ 100 nM	CCc1nn2c(C)cc(N3CCC4(CN(C(=O)N5CC(O)C5)C4)C3)cc2c1N(C)c1nc(-c2ccc(F)cc2)c(C#N)s1 [Example 36, 2-((2-ethyl-5-(2-(3-hydroxyazetidine-1-carbonyl)-2,6-diazaspiro[3.4]octan-6-yl)-7-methylpyrazolo[1,5-a]pyridin-3-yl)(methyl)amino)-4-(4-fluorophenyl)thiazole-5-carbonitrile]
≤ 100 nM	≤ 100 nM	CCc1nn2c(C)cc(N3CCC4(CCN(C(=O)N5CC(O)C5)C4)CC3)cc2c1N(C)c1nc(-c2ccc(F)cc2)c(C#N)s1 [Example 37, 2-((2-ethyl-5-(2-(3-hydroxyazetidine-1-carbonyl)-2,8-diazaspiro[4.5]decan-8-yl)-7-methylpyrazolo[1,5-a]pyridin-3-yl)(methyl)amino)-4-(4-fluorophenyl)thiazole-5-carbonitrile]
≤ 100 nM	≤ 100 nM	CCc1nn2c(C)cc(N3CC4(CN(C(=O)C5CCCO5)C4)C3)cc2c1N(C)c1nc(-c2ccc(F)cc2)c(C#N)s1 (stereo not shown) [Example 38, 2-((2-ethyl-7-methyl-5-(6-(tetrahydrofuran-2-carbonyl)-2,6-diazaspiro[3.3]heptan-2-yl)pyrazolo[1,5-a]pyridin-3-yl)(methyl)amino)-4-(4-fluorophenyl)thiazole-5-carbonitrile]
≤ 100 nM	≤ 100 nM	CCc1nn2c(C)cc(N3CC4(CN(C(=O)[C@H]5CCOC5)C4)C3)cc2c1N(C)c1nc(-c2ccc(F)cc2)c(C#N)s1 [Example 39, (S)-2-((2-ethyl-7-methyl-5-(6-(tetrahydrofuran-3-carbonyl)-2,6-diazaspiro[3.3]heptan-2-yl)pyrazolo[1,5-a]pyridin-3-yl)(methyl)amino)-4-(4-fluorophenyl)thiazole-5-carbonitrile]
≤ 100 nM	≤ 100 nM	CCc1nn2c(C)cc(N3CC4(CN(C(=O)[C@@H]5CCOC5)C4)C3)cc2c1N(C)c1nc(-c2ccc(F)cc2)c(C#N)s1 [Example 40, (R)-2-((2-ethyl-7-methyl-5-(6-(tetrahydrofuran-3-carbonyl)-2,6-diazaspiro[3.3]heptan-2-yl)pyrazolo[1,5-a]pyridin-3-yl)(methyl)amino)-4-(4-fluorophenyl)thiazole-5-carbonitrile]
≤ 100 nM	≤ 100 nM	CCc1nn2c(C)cc(N3CC4(CN(C(=O)C5CCOCC5)C4)C3)cc2c1N(C)c1nc(-c2ccc(F)cc2)c(C#N)s1 [Example 41, 2-((2-ethyl-7-methyl-5-(6-(tetrahydro-2H-pyran-4-carbonyl)-2,6-diazaspiro[3.3]heptan-2-yl)pyrazolo[1,5-a]pyridin-3-yl)(methyl)amino)-4-(4-fluorophenyl)thiazole-5-carbonitrile]
